Several values for one entry are separate records, joined by “and”; a condition that tells them apart may be missing. Identical values can stand only once.
Key:
TET2CDΔLCI = target: T1, TET2CDΔLCI (Homo sapiens, UniProt Q6N021); assay: Continuous reaction monitoring (1H NMR), 2OG decarboxylation; format: biochemical
T1 construct: FLAG-[thrombin cleavage site]-SUMO (N); made in house; host or cells: E. coli
Description: Double-stranded DNA oligomers were added at a final concentration of 20 µM. Data plotted from two independent replicates (n = 2). Initial rates reported as the mean of two independent replicates (n = 2). TEXT PRINTED IN THE PICTURE: (c) No DNA: V0 (μM min^−1) NgTet1: 0.36; V0 (μM min^−1) TET2: 1.28; Relative V0 NgTet1: 1; Relative V0 TET2: 1 | (c) ^5HC DNA: V0 (μM min^−1) NgTet1: 1.30; V0 (μM min^−1) TET2: 6.34; Relative V0 NgTet1: 3.6; Relative V0 TET2: 5.0 | (c) AT DNA: V0 (μM min^−1) NgTet1: 0.82; V0 (μM min^−1) TET2: 5.78; Relative V0 NgTet1: 2.3; Relative V0 TET2: 4.5 | (c) ^5mC DNA: V0 (μM min^−1) NgTet1: 1.52; V0 (μM min^−1) TET2: 6.79; Relative V0 NgTet1: 4.2; Relative V0 TET2: 5.3
All ^1H NMR spectra were recorded at 25 °C using D2O as a reference for internal deuterium lock on a Bruker Avance III 700 MHz equipped with an inverse TCI cryoprobe in 3 or 5 mm diameter tubes with a total sample volume of 160 or 565 μL, respectively. The water signal was reduced using Perfect Echo excitation sculpting suppression. Chemical shifts are reported in ppm relative to D2O (δH = 4.70 ppm).
Spectrometer settings were determined using a control sample containing all reaction components excluding enzyme. TET enzyme was added to an identical sample, and the resulting assay mixture was transferred to an NMR tube before deposition into the instrument. […] Data acquisition was started following a brief spectrometer setting optimisation (up to 200 s delay between enzyme addition and data acquisition); 8–32 scans were accumulated for a single spectrum, corresponding to 65–179 s of acquisition time. Spectrum recordings were carried out consecutively without delay. Data were processed using automated routines on MestReNova v14.2.0; signals of interest were integrated with absolute intensity scaling. ^1H NMR time courses reported in figures are representative results from two or three independent replicates.

NgTet1 [1] = target: T2, NgTet1 (Naegleria gruberi, UniProt D2W6T1); assay: End-point analysis for tandem activity detection (SPE-MS); format: biochemical; conditions: 5 µM NgTet1, 20 µM DNA, SPE-MS (Fig. S4)
T2 construct: His6-tagged full-length Naegleria gruberi NgTet1 (321 a. a.) protein with a thrombin cleavage site; made in house; host or cells: E. coli BL21(DE3)
T2 sequence (D2W6T1 1-321): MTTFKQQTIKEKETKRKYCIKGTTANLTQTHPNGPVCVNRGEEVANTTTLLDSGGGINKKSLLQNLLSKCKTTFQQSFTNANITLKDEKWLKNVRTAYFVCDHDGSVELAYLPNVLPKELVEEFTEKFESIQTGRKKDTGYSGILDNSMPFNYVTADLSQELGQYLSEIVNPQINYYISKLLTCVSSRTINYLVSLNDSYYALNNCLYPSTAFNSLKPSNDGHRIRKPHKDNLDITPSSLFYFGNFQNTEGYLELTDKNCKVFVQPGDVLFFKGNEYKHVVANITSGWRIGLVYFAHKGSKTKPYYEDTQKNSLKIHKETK
Description: SPE-MS spectra were recorded on an Agilent RapidFire 365 High-throughput Mass Spectrometry system coupled to an Agilent 6550 iFunnel Q-TOF mass spectrometer following reported procedures[33],[34]. A RapidFire C4 (type A) solid-phase extraction (SPE) cartridge (Agilent, Cat#: G9203A) was used for analyte separation. A binary solvent system was used. Solvent A: 6 mM octylammonium acetate (prepared as described previously)[45] in H2O; solvent B: 80% v/v MeCN in H2O. Samples were aspirated into the sample loop using vacuum (40 μL) from a 96/384-well plate and loaded directly onto the SPE cartridge. The cartridge was washed with solvent A (4,000 ms, 1.5 mL min^−1), and the analyte was eluted with solvent B (4000 ms; 1.25 mL min^−1) onto the Q-TOF MS. Following each sample injection, the SPE cartridge was flushed with 3–6 cycles of H2O and MeCN to remove residual analyte before re-equilibration into solvent A. Q-TOF settings for DNA oligomer analysis were as follows: drying gas temperature: 280 °C; drying gas flow: 13 L min^−1; nebuliser gas pressure: 40 psig; sheath gas temperature: 350 °C; sheath gas flow: 12 L min^−1; capillary voltage (Vcap): 4000 V; nozzle voltage: 0 V; fragmentor voltage: 250 V; spectrum acquisition rate: 5 Hz. Data was processed using Agilent MassHunter Qualitative Analysis™ (B.07.00) and RapidFire Integrator software.
The samples were analysed by SPE-MS. […]

NgTet1 [2] = target: T2, NgTet1; assay: biochemical; conditions: for normalised activity, %: AlphaScreen
Description: (Fig. 5a), were screened for inhibitory activity against NgTet1.
Activity was normalised against reactions containing vehicle (DMSO). […] AS data shown as the mean of three experimental replicates (n = 3; mean ± SD); ^1H NMR data plotted from two independent replicates (n = 2); tabulated data reported as the mean of two and three independent replicates for ^1H NMR and AS, respectively (n = 2–3, SD reported for n = 3). N. d.: not determined; AS: AlphaScreen.
Compounds in DMSO (100 nL) were pre-dispensed in a logarithmically linear concentration gradient onto 384-well ProxiPlates using an Echo® 550 acoustic liquid handler (Labcyte). NgTet1 was pre-incubated with the inhibitor dilution series in DMSO at room temperature for 10 min. Reactions were initiated by the addition of appropriate cofactors and DNA. […] The reactions were quenched by the addition of 30 mM EDTA (pH 4.2), 358 mM NaCl (5 μL) within the enzyme linear activity window (determined in Fig. S10). Concurrently, a mixture containing the anti-^5hmC antibody (1:2000 dilution) and AlphaScreen beads (1:62.5 dilution) in assay buffer was prepared and incubated at room temperature for 30 min. The AlphaScreen bead/antibody mixture was added to the quenched NgTet1 reactions (5 μL), and the complete mixture was incubated at room temperature for 1 h. Chemiluminescence was measured on a PHERAstar FS/FSX (BMG Labtech) equipped with an AlphaScreen 680 570 module. All AlphaScreen bead manipulations were performed under subdued lighting. Inhibition data was normalised to reactions containing vehicle only (1% v/v DMSO) and fitted using “log(inhibitor) vs. response—Variable slope (four parameters)” non-linear regression model on GraphPad Prism 5.

Compound: 5HC DNA: non-methylated DNA of the same sequence, 5'-ACC ACC GGT GGT-3', non-substrate (DNA ACCACCGGTGGT; DNA, backbone not given here)
- V0 TET2 (TET2CDΔLCI; 20 µM DNA, 100 μM 2OG, 5 μM TET2CDΔLCI): 6.34 µM/min
- succinate (TET2CDΔLCI; n = 1, time (min) 5HC DNA 5.78333, AT DNA 5.73333, 5mC DNA 5.58333): 44.3007 µM
- succinate (TET2CDΔLCI; n = 1, time (min) 5HC DNA 8.86667, AT DNA 8.81667, 5mC DNA 8.65): 54.4828 µM
- succinate (TET2CDΔLCI; n = 1, time (min) 5HC DNA 11.95, AT DNA 11.8833, 5mC DNA 11.7333): 59.3102 µM
- succinate (TET2CDΔLCI; n = 1, time (min) 5HC DNA 15.0333, AT DNA 14.9667, 5mC DNA 14.8167): 61.4847 µM
- succinate (TET2CDΔLCI; n = 1, time (min) 5HC DNA 18.1167, AT DNA 18.05, 5mC DNA 17.9): 65.1131 µM
- succinate (TET2CDΔLCI; n = 1, time (min) 5HC DNA 21.2333, AT DNA 21.1333, 5mC DNA 21): 67.3764 µM
- succinate (TET2CDΔLCI; n = 1, time (min) 5HC DNA 24.3333, AT DNA 24.2167, 5mC DNA 24.0667): 68.0997 µM
- succinate (TET2CDΔLCI; n = 1, time (min) 5HC DNA 27.4167, AT DNA 27.3, 5mC DNA 27.15): 69.3831 µM
- succinate (TET2CDΔLCI; n = 1, time (min) 5HC DNA 30.55, AT DNA 30.3833, 5mC DNA 30.2333): 70.6241 µM
- succinate (TET2CDΔLCI; n = 1, time (min) 5HC DNA 33.65, AT DNA 33.4667, 5mC DNA 33.3167): 71.0252 µM
- succinate (TET2CDΔLCI; n = 1, time (min) 5HC DNA 36.7333, AT DNA 36.5333, 5mC DNA 36.4): 71.8004 µM
- succinate (TET2CDΔLCI; n = 1, time (min) 5HC DNA 39.8333, AT DNA 39.6167, 5mC DNA 39.4833): 71.1327 µM
- succinate (TET2CDΔLCI; n = 1, time (min) 5HC DNA 42.9, AT DNA 42.7, 5mC DNA 42.5667): 71.8764 µM
- succinate (TET2CDΔLCI; n = 1, time (min) 5HC DNA 46, AT DNA 45.7833, 5mC DNA 45.6667): 73.8393 µM
- succinate (TET2CDΔLCI; n = 1, time (min) 5HC DNA 49.0833, AT DNA 48.8667, 5mC DNA 48.75): 72.8966 µM
- succinate (TET2CDΔLCI; n = 1, time (min) 5HC DNA 52.1667, AT DNA 51.95, 5mC DNA 51.8333): 73.2704 µM
- succinate (TET2CDΔLCI; n = 1, time (min) 5HC DNA 55.25, AT DNA 55.0333, 5mC DNA 54.9167): 74.052 µM
- succinate (TET2CDΔLCI; n = 1, time (min) 5HC DNA 58.3167, AT DNA 58.1167, 5mC DNA 58): 74.0256 µM
- succinate (TET2CDΔLCI; n = 1, time (min) 5HC DNA 61.4, AT DNA 61.2667, 5mC DNA 61.1): 74.622 µM
- succinate (TET2CDΔLCI; n = 2, time (min) 5HC DNA 5.66667, AT DNA 5.66667, 5mC DNA 5.8): 46.0808 µM
- succinate (TET2CDΔLCI; n = 2, time (min) 5HC DNA 8.75, AT DNA 8.75, 5mC DNA 8.88333): 55.6216 µM
- succinate (TET2CDΔLCI; n = 2, time (min) 5HC DNA 11.8333, AT DNA 11.85, 5mC DNA 11.9667): 60.916 µM
- succinate (TET2CDΔLCI; n = 2, time (min) 5HC DNA 14.9167, AT DNA 14.9333, 5mC DNA 15.05): 64.6085 µM
- succinate (TET2CDΔLCI; n = 2, time (min) 5HC DNA 18.0167, AT DNA 18.0167, 5mC DNA 18.1167): 67.8421 µM
- succinate (TET2CDΔLCI; n = 2, time (min) 5HC DNA 21.1, AT DNA 21.1, 5mC DNA 21.2): 69.2588 µM
- succinate (TET2CDΔLCI; n = 2, time (min) 5HC DNA 24.1833, AT DNA 24.1667, 5mC DNA 24.2833): 70.2836 µM
- succinate (TET2CDΔLCI; n = 2, time (min) 5HC DNA 27.25, AT DNA 27.25, 5mC DNA 27.3667): 71.3409 µM
- succinate (TET2CDΔLCI; n = 2, time (min) 5HC DNA 30.3333, AT DNA 30.3333, 5mC DNA 30.45): 71.8731 µM
- succinate (TET2CDΔLCI; n = 2, time (min) 5HC DNA 33.4167, AT DNA 33.4167, 5mC DNA 33.5333): 71.8297 µM
- succinate (TET2CDΔLCI; n = 2, time (min) 5HC DNA 36.5, AT DNA 36.5, 5mC DNA 36.6167): 74.102 µM
- succinate (TET2CDΔLCI; n = 2, time (min) 5HC DNA 39.5833, AT DNA 39.5833, 5mC DNA 39.7): 75.5956 µM
- succinate (TET2CDΔLCI; n = 2, time (min) 5HC DNA 42.6667, AT DNA 42.6667, 5mC DNA 42.7833): 75.7723 µM
- succinate (TET2CDΔLCI; n = 2, time (min) 5HC DNA 45.75, AT DNA 45.75, 5mC DNA 45.8667): 76.9891 µM
- succinate (TET2CDΔLCI; n = 2, time (min) 5HC DNA 48.8333, AT DNA 48.8333, 5mC DNA 48.95): 76.9274 µM
- Relative V0 TET2 (TET2CDΔLCI; relative to reactions without DNA): 5.0
- enzymatic oxidation by NgTet1 (NgTet1 [1]): did not undergo enzymatic oxidation

Compound: O=C(O)CNC(=O)C(=O)O [NOG, N-oxalylglycine]
- normalised activity, % (NgTet1 [2]; -Log[inhibitor] (M) 3.30535): 27.0589% and 23.4073% and 23.5938%
- normalised activity, % (NgTet1 [2]; -Log[inhibitor] (M) 3.82823): 54.6166% and 46.9965% and 50.3704%
- normalised activity, % (NgTet1 [2]; -Log[inhibitor] (M) 4.30535): 72.1146% and 66.2321% and 78.0488%
- normalised activity, % (NgTet1 [2]; -Log[inhibitor] (M) 4.90741): 90.0386% and 80.363% and 83.4878%
- normalised activity, % (NgTet1 [2]; -Log[inhibitor] (M) 5.39553): 101.245% and 102.244% and 89.2336%
- normalised activity, % (NgTet1 [2]; -Log[inhibitor] (M) 5.91841): 103.288% and 99.259% and 97.2201%
- normalised activity, % (NgTet1 [2]; -Log[inhibitor] (M) 6.39553): 114.516% and 95.8112% and 105.039%
- normalised activity, % (NgTet1 [2]; -Log[inhibitor] (M) 6.99759): 113.992% and 95.1834% and 95.7883%
- normalised activity, % (NgTet1 [2]; -Log[inhibitor] (M) 7.50947): 110.682% and 100% and 109.028%
- normalised activity, % (NgTet1 [2]; -Log[inhibitor] (M) 8.03235): 108.192% and 91.8591% and 90.7491%
- IC50 (NgTet1 [2]; read-out: IC50, 5mC ssDNA, AS): 200 µM
